# Assay results published in PubChem BioAssay (NCI).
#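 96-well plates; 48 h exposure; 5 concentrations. Endpoints by linear interpolation between flanking doses. Not reached: highest tested concentration assigned. TGI is the concentration that stops growth completely.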
# Assays:
# Experiment in all cases: NCI tumour cell line growth inhibition, 48 h
# HCT-15 colon = tested on: HCT-15 colon
# HOP-92 NSCLC = tested on: HOP-92 NSCLC
# MALME-3M melanoma = tested on: MALME-3M melanoma
# MDA-N = tested on: MDA-N
# NCI-H460 lung = tested on: NCI-H460 lung
# NCI-H522 lung = tested on: NCI-H522 lung
# OVCAR-4 ovarian = tested on: OVCAR-4 ovarian
# OVCAR-8 ovarian = tested on: OVCAR-8 ovarian
# PC-3 prostate = tested on: PC-3 prostate
# SNB-19 CNS = tested on: SNB-19 CNS
# T-47D breast = tested on: T-47D breast
# U251 CNS = tested on: U251 CNS
Compound,TGI (HCT-15 colon),TGI (HOP-92 NSCLC),TGI (MALME-3M melanoma),TGI (MDA-N),TGI (NCI-H460 lung),TGI (NCI-H522 lung),TGI (OVCAR-4 ovarian),TGI (OVCAR-8 ovarian),TGI (PC-3 prostate),TGI (SNB-19 CNS),TGI (T-47D breast),TGI (U251 CNS)
OC(C/C=N/N=C/CC(O)(C(F)(F)Cl)C(F)(F)Cl)(C(F)(F)Cl)C(F)(F)Cl,> 10 µM,> 10 µM,> 10 µM,> 10 µM,> 10 µM,> 10 µM,> 10 µM,> 10 µM,> 10 µM,> 10 µM,> 10 µM,> 10 µM
Cc1ccc(CSC(N)=Nc2ccccc2)cc1C,60.1 µM,45.7 µM,34.2 µM,43.8 µM,39 µM,35.4 µM,36.5 µM,45.9 µM,60.5 µM,65.9 µM,45 µM,31.6 µM
